# “And” between values parts separate entries of the source, which are not always exact repeats. Equal entries are not always repeated. No end group written: not given here.
# T1: interaction between FVIII light chain and LRP cluster II (Homo sapiens, UniProt Q07954)
# T1 construct: Recombinant LRP clusters II or IV (1 pmol/well) were adsorbed onto microtiter wells; made in house; host or cells: LRP cluster II: BHK cells; FVIII light chain: plasma-derived
# T1 sequence (Q07954 803-1182): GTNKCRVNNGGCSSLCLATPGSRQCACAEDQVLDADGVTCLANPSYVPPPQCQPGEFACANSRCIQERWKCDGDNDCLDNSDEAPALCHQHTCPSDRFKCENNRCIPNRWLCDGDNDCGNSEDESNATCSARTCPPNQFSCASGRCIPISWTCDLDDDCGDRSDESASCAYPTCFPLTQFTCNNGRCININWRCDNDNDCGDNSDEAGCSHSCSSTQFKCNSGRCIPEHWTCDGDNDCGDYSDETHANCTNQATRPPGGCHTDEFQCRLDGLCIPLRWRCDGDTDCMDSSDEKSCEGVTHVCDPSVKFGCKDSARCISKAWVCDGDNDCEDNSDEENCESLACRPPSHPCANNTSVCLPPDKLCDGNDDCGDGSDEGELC
# T2: interaction between FVIII light chain and LRP cluster IV (Homo sapiens, UniProt P00451)
# T2 construct: made in house; host or cells: LRP cluster IV: BHK cells; FVIII light chain: plasma-derived
# T2 sequence (P00451 1668-2351 limits assumed): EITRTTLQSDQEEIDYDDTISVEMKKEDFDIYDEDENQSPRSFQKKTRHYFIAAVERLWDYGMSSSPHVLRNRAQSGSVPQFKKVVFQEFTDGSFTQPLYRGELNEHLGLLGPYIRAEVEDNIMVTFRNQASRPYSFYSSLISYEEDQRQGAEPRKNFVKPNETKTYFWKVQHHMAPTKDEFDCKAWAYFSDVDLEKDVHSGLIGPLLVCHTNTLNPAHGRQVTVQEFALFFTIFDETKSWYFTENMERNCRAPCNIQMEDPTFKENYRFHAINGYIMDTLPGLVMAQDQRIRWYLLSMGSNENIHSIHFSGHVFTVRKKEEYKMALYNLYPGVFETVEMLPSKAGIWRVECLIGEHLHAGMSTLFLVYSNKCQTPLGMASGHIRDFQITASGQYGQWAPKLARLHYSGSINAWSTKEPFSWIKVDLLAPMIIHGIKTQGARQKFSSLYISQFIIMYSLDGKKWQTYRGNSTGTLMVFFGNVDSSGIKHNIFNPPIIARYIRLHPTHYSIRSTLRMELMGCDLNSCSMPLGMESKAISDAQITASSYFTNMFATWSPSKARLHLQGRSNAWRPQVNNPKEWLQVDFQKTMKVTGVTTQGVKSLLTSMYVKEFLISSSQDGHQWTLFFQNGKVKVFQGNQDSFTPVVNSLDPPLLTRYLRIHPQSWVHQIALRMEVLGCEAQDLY
# T3: interaction between FVIII light chain and LRP cluster II (Homo sapiens, UniProt P00451)
# T3 construct: Recombinant LRP clusters II or IV (1 pmol/well) were adsorbed onto microtiter wells; made in house; host or cells: LRP cluster II: BHK cells; FVIII light chain: plasma-derived
# T3 sequence (P00451 1668-2351): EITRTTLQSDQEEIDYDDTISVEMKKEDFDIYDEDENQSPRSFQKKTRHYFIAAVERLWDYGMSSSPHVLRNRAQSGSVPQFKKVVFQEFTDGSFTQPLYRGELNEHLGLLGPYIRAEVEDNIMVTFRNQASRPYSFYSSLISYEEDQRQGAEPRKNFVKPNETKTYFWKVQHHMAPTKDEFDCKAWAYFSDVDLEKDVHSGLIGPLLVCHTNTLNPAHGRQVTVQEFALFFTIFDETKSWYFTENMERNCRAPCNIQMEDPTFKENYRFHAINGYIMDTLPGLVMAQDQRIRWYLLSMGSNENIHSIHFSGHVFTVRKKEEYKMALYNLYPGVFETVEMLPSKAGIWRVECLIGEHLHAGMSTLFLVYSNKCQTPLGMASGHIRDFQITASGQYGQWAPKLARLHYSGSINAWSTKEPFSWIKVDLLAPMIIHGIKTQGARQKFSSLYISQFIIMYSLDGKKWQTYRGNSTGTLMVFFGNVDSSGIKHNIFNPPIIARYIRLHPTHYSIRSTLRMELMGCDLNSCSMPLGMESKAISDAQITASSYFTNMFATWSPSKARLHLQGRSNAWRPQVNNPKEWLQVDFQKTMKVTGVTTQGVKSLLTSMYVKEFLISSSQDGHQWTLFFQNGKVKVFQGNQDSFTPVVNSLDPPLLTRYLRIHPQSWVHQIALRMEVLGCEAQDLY
# Key:
# [1] = molecular target: T1, interaction between FVIII light chain and LRP cluster II; assay: Solid-phase competition: FVIII light chain binding to immobilized LRP cluster II; details: FVIII light chain 25 nM; peptide 0-1 mM; 2 h at 37° C
# Protocol: (§1) FIG. 4. Effect of scFv antibody fragments on the interaction between FVIII light chain and LRP. A, FVIII light chain (LCh) (25 nM) was incubated with immobilized LRP cluster II (1 pmol/well) in a volume of 50 μl in 150 mM NaCl, 5 mM CaCl2, 1% (w/v) HSA, 0.1% Tween® 20, and 50 mM Tris (pH 7.4) in the presence of various concentrations (0-100 nM) of scFv KM41 (closed circles) or scFv KM36 (open circles) for 2 h at 37° C. After washing with the same buffer, bound FVIII light chain was quantified by incubation with peroxidase-conjugated anti-FVIII antibody CLB-CAg 12 for 15 min at 37° C. Residual binding is expressed as the percentage of binding in the absence of competitor and is corrected for nonspecific binding (less than 5% relative to binding to LRP cluster II-immobilized wells). Data represent the mean±S.D. of three experiments. B, FVIII light chain (50 nM) was incubated with immobilized LRP (16 fmol/mm^2) as described in the legend of FIG. 1. Binding was assessed in the absence (curve 1) or in the presence of increasing concentrations of scFv KM41 (20, 60, 300, 500 nM, curves 2-5, respectively). Complexes were allowed to form for 30 min before SPR analysis.
# (§2) FIG. 5. Effect of scFv KM33 on the interaction between FVIII light chain and LRP. FVIII light chain (LCh) (25 nM) was incubated with immobilized LRP cluster II (1 pmol/well) in a volume of 50 μl in 150 mM NaCl, 5 mM CaCl2, 1% (w/v) HSA, 0.1% Tween® 20, and 50 mM Tris (pH 7.4) in the presence of various concentrations (0-30 nM) of scFv KM36 (open circles) or scFv KM33 (closed circles) for 2 h at 37° C. After washing with the same buffer, bound FVIII Light chain was quantified by incubation with peroxidase-conjugated anti-FVIII antibody CLB-CAg 12 for 15 min at 37° C. Residual binding is expressed as the percentage of binding in the absence of competitor and is corrected for nonspecific binding (less than 5% relative to binding to cluster-coated wells). Data represent the mean±S.D. of three experiments.
# (§3) Recombinant LRP clusters II or IV (1 pmol/well) were adsorbed onto microtiter wells in 50 mM NaHCO3 (pH 9.8) in a volume of 50 μl for 16 h at 4° C. Wells were blocked with 2% (w/v) HSA, 150 mM NaCl, 5 mM CaCl2, and 50 mM Tris (pH 7.4) in a volume of 200 μl for 1 h at 37° C. After three rapid washes (less than 5 seconds each) with 150 mM NaCl, 5 mM CaCl2, 0.1% (v/v) Tween® 20, and 50 mM Tris (pH 7.4), FVIII light chain or its derivatives were incubated at various concentrations in a volume of 50 μl in a buffer containing 150 mM NaCl, 5 mM CaCl2, 1% (w/v) HSA, 0.1% (v/v) Tween® 20, and 50 mM Tris (pH 7.4) for 2 h. at 37° C. Bound ligand was detected by incubating with peroxidase-conjugated monoclonal antibody CLB-CAg 12 in the same buffer for 15 min at 37° C. […] In competition experiments, FVIII light chain (25 nM) was incubated with wells containing immobilized LRP clusters, either in the presence or absence of serial dilutions of competitor in a volume of 50 μl for 2 h at 37° C. Residual FVIII binding was detected as described above. Data were corrected for binding to empty microtiter wells, which was less than 5% relative to binding to wells containing immobilized LRP clusters.
# (§4) (Note to Table II: Effect of FVIII a3-A3-C1 fragment derived synthetic peptides on the interaction between FVIII light chain and LRP cluster II. FVIII light chain (25 nM) was incubated with immobilized LRP cluster II (1 pmol/well) in a volume of 50 μl in 150 mM NaCl, 5 mM CaCl2, 1% (w/v) HSA, 0.1% Tween® 20, and 50 mM Tris (pH 7.4) in the presence or absence of various concentrations of synthetic peptide (0-1 mM) for 2 h at 37° C. After washing with the same buffer, bound FVIII light chain was quantified by incubation with peroxidase-conjugated anti-FVIII antibody CLB-CAg 12 for 15 min at 37° C. Half-maximum inhibition constants (IC50) represent the mean values±S.D. of three experiments.)
# [2] = molecular target: T2, interaction between FVIII light chain and LRP cluster IV; assay: Solid-phase competition: FVIII light chain binding to immobilized LRP cluster IV; details: FVIII light chain 25 nM; competitor 0-600 nM
# Protocol: FIG. 2. Binding of FVIII light chain to recombinant LRP fragments. FVIII light chain (LCh) (25 nM) was incubated with immobilized LRP cluster IV (1 pmol/well) in a volume of 50 μl in 150 mM NaCl, 5 mM CaCl2, 1% (w/v) HSA, 0.1% Tween® 20, and 50 mM Tris (pH 7.4) in the presence or absence of various concentrations of recombinant LRP cluster II (0-600 nM) for 2 h at 37° C. After washing with the same buffer, bound FVIII light chain was quantified by incubation with peroxidase-conjugated anti-FVIII antibody CLB-CAg 12 for 15 min at 37° C. Residual binding is expressed as the percentage of binding in the absence of competitor and is corrected for nonspecific binding (less than 5% relative to binding to LRP cluster II-immobilized wells). Inset, serial dilutions of FVIII light chain were incubated with immobilized LRP cluster II (1 pmol/well) in a volume of 50 μl in 150 mM NaCl, 5 mM CaCl2, 1% (w/v) HSA, 0.1% Tween® 20, and 50 mM Tris (pH 7.4) for 2 h at 37° C. After washing with the same buffer, bound FVIII light chain was quantfied as described above. […]
# Recombinant LRP clusters II or IV (1 pmol/well) were adsorbed onto microtiter wells in 50 mM NaHCO3 (pH 9.8) in a volume of 50 μl for 16 h at 4° C. […] Bound ligand was detected by incubating with peroxidase-conjugated monoclonal antibody CLB-CAg 12 in the same buffer for 15 min at 37° C. […] Residual FVIII binding was detected as described above. […]
# FVIIIa-FIXa complex = FVIIIa-FIXa complex (Homo sapiens, UniProt P00451+P00740); details: by interfering with the assembly of the FVIIIa-FIXa complex; cited from earlier work
# [3] = molecular target: T3, interaction between FVIII light chain and LRP cluster II; assay: Solid-phase competition: FVIII light chain binding to immobilized LRP cluster II; details: FVIII light chain 25 nM
# Protocol: as §1, §2, §3, §4
# [4] = Factor VIII clearance and recovery in vWF knock out mice; assay type: in vivo; details: for Factor VIII activity in plasma: Factor VIII 200 U/kg
# Protocol: FIG. 8. According to Example II, mice were injected either with human FVIII alone, human FVIII in the presence of a control scFv-fragment (KM38) and with human FVIII in the presence of a scFv-fragment (KM33) specifically interfering with the putative FVIII-LRP interaction.
# Experimental procedure: vWF knock out mice (decreased endogenous Factor VIII, 20% Factor VIII compared to healthy animals) were treated with human recombinant Factor VIII (Recombinate™; 200 U/kg) and recombinant scFv (KM33) in excess. (30 nM versus 3 nM Factor VIII in plasma). In control experiments, Factor VIII and a control scFv fragment (KM38) binding to a different domain as the proposed LRP binding
# site on the Factor VIII molecule were used in the same concentrations. Infusion of recombinant FVIII without any addition was used to monitor the clearance of Factor VIII in this model system.
# At defined time points (15, 30, 60, 120 and 240 minutes) after injection, blood was collected by heart puncture, plasma was subsequently isolated, shock frozen and analyzed for Factor VIII activity. Ten mice were used at each time point, plasma was diluted to 3 concentrations (1:20, 1:60 and 1:100) and analyzed in duplicate. Factor VIII levels were quantified by performing a quantitative ELISA.
# Chain of FVIIIa-FIXa complex (P00740 47-191 limits assumed, one chain of several): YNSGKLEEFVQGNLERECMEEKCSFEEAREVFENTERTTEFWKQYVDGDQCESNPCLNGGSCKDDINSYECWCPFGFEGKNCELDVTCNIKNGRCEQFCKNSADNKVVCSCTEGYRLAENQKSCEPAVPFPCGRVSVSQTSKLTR
Molecule,IC50 [1],Inhibition of FVIII procoagulant activity (FVIIIa-FIXa complex),further results
EDPTFKENYRFH [Residues 1908-1919],> 1000 µM,,
HMAPTKDEFDCKA [Residues 1822-1834],> 1000 µM,,
KLARLHYSG [Residues 2049-2057],> 1000 µM,,
WDYGMSSSPHVLRNR [Residues 1707-1721],> 1000 µM,,
TENMERNCRA [Residues 1892-1901],> 1000 µM,,
LRP cluster II: recombinant LRP ligand binding cluster II expressed in BHK cells,,,Inhibition of FVIII light chain binding to immobilized LRP cluster IV [2]: dose-dependent inhibition
KNFVKPNETKTYFWK [Residues 1804-1818],~1.9 µM and 1.9 µM,effective inhibitors,
YFWKVQHHMAPTKDEFDCKA [Residues 1815-1834],~16.8 µM and 16.8 µM,effective inhibitors,
TVRKKEEYK [Residues 1964-1972],> 1000 µM,,
scFv KM33: scFv antibody fragment against FVIII light chain; does not require A3 domain region 1778-1818; LRP blocking (protein) scFv: EVQLVESGGGVVQPGRSLRLSCVDSGLTFSSYGMHWVRQAPGAGLEWVAVISYDGNDKYYADSVKGRFAISRDNAKNTLYLQMNSLTIEDTAVYYCAKDLIESNIAEAFWGQGTLVTVSSGGGGSGGGGSGGGGSDIQMTQSPSSLSASVGDTVTIACRASRDIRNDLAWYQQKPGKAPKLLIYATSRLQSGVPSRFSGSGSFTDFTLTINSLQPDDSATYYCLQDSDYPLTFGGGTKVDIKRAAAEQKLISEEDLNGAAHHHHHH,,effective inhibitors,Effect on binding of FVIII light chain to immobilized LRP cluster II [3]: effectively inhibited; Factor VIII recovery ([4]; 15 minutes after injection): 30.4%; Factor VIII activity in plasma ([4]; 15 minutes after injection): about 0.8 U/mL; Factor VIII recovery ([4]; 30 minutes after injection): 20%; Factor VIII activity in plasma ([4]; 30 minutes after injection): 0.5 U/mL; Factor VIII recovery ([4]; 60 minutes after injection): 14%; Factor VIII activity in plasma ([4]; 60 minutes after injection): 0.35 U/mL; FVIII activity levels ([4]; four hours after injection): reached the background activity of mouse Factor VIII

# From US8586538B2, “Method of treating a patient suffering from a bleeding disorder comprising administering an antibody against the A3-C1 of FVIII” (Stichting Sanquin Bloedvoorziening, priority 2002, dated 2013)
